Entries after “also recorded” stand apart in the source; their conditions may differ.
Assays:
[1] = assay type: in vivo
Procedure: Methods: Forty-five female CD-1 mice were distributed by means of the body weight stratification method into nine experimental groups (A-I) (5 animals for group) that differed in the treatment or in the day on which the reference items (paclitaxel and carboplatin) were administered.
The table below summarizes the treatment groups. Please note that the same administration schedule and doses were administered as in the previous efficacy studies.
The safety assessment relied on observed mortality, local and systemic clinical signs, body weight and food consumption recorded throughout the whole study. In addition, clinical pathology determinations (biochemistry and hematology) were performed before sacrifice in all animals. At the end of the observation period (one day after the last administration), all surviving animals were sacrificed and subjected to a gross necropsy. Moreover, the safety assessment was also based on the weight of selected target organs collected at sacrifice.

[2] = test system: MiaPaca2 (human pancreatic carcinoma); assay: Cell viability (MTT) of ABTL0812 alone or with gemcitabine in pancreatic cancer; assay type: cell-based
Procedure: Methods: MiaPaca2 cells were seeded in 24-well plates together with gemcitabine (0.01-100 μM), ABTL812 (3-300 μM), or a combination of both (subIC50, i.e., 25 μM fixed concentration of ABTL0812 with 0.01-100 μM gemcitabine) and left in the incubator for 72h (0.5% FBS). Cell viability was studied by the MTT assay and several parameters were determined to evaluate a possible synergism. First the IC50 for each drug alone or the combination was calculated. Then, synergism (CI) was calculated as described above.

[3] = test system: A549 (human lung carcinoma) cell line; assay: Cell viability (MTT) of ABTL0812 in combination with docetaxel in lung cancer; assay type: cell-based; settings: A549, three days, FBS 0.5%, single agent
Procedure: Methods: A549 cells were incubated with increasing concentrations of ABTL0812 (3-300 μM), docetaxel (0.01-100 μM), or a combination of both (subIC50, i.e., 20 μM fixed concentration of ABTL812 and 0.01-100 μM docetaxel) for three days (FBS 0.5%). […] In the denominator, (Dx)1 is for D1“alone” that inhibits a system x %, and (Dx)2 is for D2“alone” that inhibits a system x %.

[4] = test system: MiaPaca2 human pancreatic cancer xenograft; assay: Human pancreatic xenograft (MiaPaca-2), gemcitabine and Nab-paclitaxel/gemcitabine; assay type: in vivo, Athymic Nude-Foxn1nu female mice; settings: ABTL0812 120 mg/kg oral 5 times a week; gemcitabine 60 mg/kg, Nab-Paclitaxel 5 mg/kg i.p. 2 times a week (suboptimal chemotherapy dose)
Procedure: It is important to change the site of injection to avoid intestinal necrosis and keep Nab-Paclitaxel and gemcitabine injections as far as possible one from the other in mice abdomen. • Gemcitabine+ABTL0812 (n=10): treated orally with 120 mg/kg of ABTL0812 in 200 μl of distilled water+5% glycerol, 5 times a week and with 60 mg/kg of gemcitabine administered i.p in 100 μl of sterile water, 2 times a week. ABTL0812 was always administered before chemotherapy with the aim of reducing the stress derived from the i.p. injection, that is normally applied as the last administration. • Gemcitabine+Nab-Paclitaxel+ABTL0812 (n=8): treated orally with 120 mg/kg of ABTL0812 in 200 μl of distilled water+5% glycerol, 5 times a week, with 60 mg/kg of gemcitabine administered i.p. in 100 μl of sterile water, 2 times a week and with 5 mg/kg of Nab-Paclitaxel administered i.p. in 230 μl of 0.9% NaCl solution 2 times a week. As in the gemcitabine+Nab-Paclitaxel group, injections where administered in separated areas of the abdomen. […]
Treatment efficacy was assessed by measuring tumor volume three days a week. Additionally, total body weight was monitored three days a week to test the toxicity associated with the treatments in addition to visual examination of signs indicative of clinicopathological symptoms. […]

[5] = test system: human endometrial cancer patient derived xenograft; assay: Patient-derived xenograft (PDX) endometrial model, paclitaxel and carboplatin
Procedure: After tumors grew up to 100 mm^3, tumors were extracted from mice, minced in 2 mm long pieces and re-implanted in one flank of 40 mice. When average tumor volume reached 100 mm^3, mice were randomly distributed into treatment groups, and dosed as follows: vehicle (n=11); ABTL0812: 120 mg/kg orally, 5 times per week (n=10); paclitaxel/carboplatin (P/C): P:50 mg/kg/C:15 mg/kg intraperitoneal (n=12); and ABTL0812+P/C: ABTL0812 (n=10) was administered always two days prior to the first P/C administration and two days after, maintaining 4 doses of ABTL0812 and one of P/C per week; doses were the same as when given separately.
The effectiveness of the therapy was measured by the impact of the treatment on the tumor growth, which was measured by its volume. The health state of the animals and the drug-induced toxicity were determined by the animal body weight during the study. Tumor size evolution and tumor weight were evaluated by two-way ANOVA (day by day analysis).
In order to simulate the Phase II clinical trial design, where ABTL0812 will be administered chronically after P/C cycles, P/C treatment was removed from P/C and ABTL0812+P/C groups, maintaining ABTL0812 chronically. Tumor volume was measure after P/C treatment removal during an extra 17 days.

H1957 cells = assay: Cell viability (MTT) of ABTL0812 in combination with paclitaxel, H1957; assay type: cell-based, human; settings: H1957, 48 hours, 0.1% FBS, single agent
Procedure: (§1) Methods: A549 cells were incubated with increasing concentrations of ABTL0812 (3-300 μM), paclitaxel (0.003-1 μM), or a combination of both using subIC50 fixed concentration of ABTL0812 and 0.003-1 μM paclitaxel for 72 hours in DMEM with 0.1% FBS. H157, H1957 and HTB-812 cells were incubated with increasing concentrations of paclitaxel (0.001-10 μM) alone and in combination with subIC50 fixed concentration of ABTL0812 for 48 hours in DMEM with 0.1% FBS. Cell viability was evaluated in all cases by MTT assay and IC50's were calculated for paclitaxel and the combination. The concentrations of the combinations for the different cell lines were:
(§2) Finally, the Combination Index (CI), as described in the previous section, was calculated for the values of paclitaxel IC50.

[6] = test system: EGI-1 human cholangiocarcinoma xenograft; assay: Human cholangiocarcinoma (EGI-1) xenograft, gemcitabine and cisplatin; assay type: in vivo, Nu/nu male mice; settings: ABTL0812 120 mg/kg oral; gemcitabine 50 mg/kg and cisplatin 2 mg/kg i.p. once a week
Procedure: Methods: EGI-1 cell line was routinely cultured in DMEM 10% FBS and cells in an exponential growth phase were harvested and counted for tumor inoculation.
Treatment groups were: • Vehicle group (n=8): treated orally with 200 μl of water+5% glycerol four days a week and two injections i.p. of 100 μl of saline solution once a week • ABTL0812 (n=8): treated orally with 200 μl of 120 mg/kg of ABTL0812 resuspended in water+5% glycerol 5 times a week • Gemcitabine/cisplatin (n=8): treated with 100 μl of 50 mg/kg of gemcitabine administered i.p. and 100 μl of 2 mg/kg of cisplatin administered i.p. once a week • ABTL0812+gemcitabine/cisplatin (n=8): treated orally with 200 μl of 120 mg/kg of ABTL0812 four days a week and 100 μl of 50 mg/kg of gemcitabine administered i.p. and 100 μl of 2 mg/kg of cisplatin administered i.p. once a week

[7] = test system: A549 (human lung carcinoma) cell line with mutated KRAS; assay: Cell viability (MTT) of ABTL0812 in combination with paclitaxel, A549; assay type: cell-based; settings: A549, 72 hours, 0.1% FBS, single agent
Procedure: as §1, §2

[8] = test system: H157 human squamous lung cancer xenograft; assay type: in vivo; settings: day 20 after beginning of treatments; ABTL0812 120 mg/kg oral; end-point tumor volume >1000 mm^3 or welfare
Procedure: Objective: Investigate survival rate for ABTL0812 alone and in combination with paclitaxel and carboplatin (P/C) with a Kaplan-Meier analysis in a human squamous NSCLC xenograft model Methods: Mice were injected with 5×10^6 H157 cells in one flank to induce tumor formation. […] The different conditions studied were vehicle, 120 mg/kg oral ABTL0812 daily, 15 mg/kg carboplatin+50 mg/kg paclitaxel by i.p. route and an additional group receiving the combination of these two regimens. […] Tumor volume was monitored 3 times a week.

H157 cells = assay: Cell viability (MTT) of ABTL0812 in combination with paclitaxel, H157; assay type: cell-based, human; settings: H157, 48 hours, 0.1% FBS, single agent
Procedure: as §1, §2

HTB-812 cells = assay: Cell viability (MTT) of ABTL0812 in combination with paclitaxel, HTB-812; assay type: cell-based, human; settings: HTB-812, 48 hours, 0.1% FBS, single agent
Procedure: as §1, §2

Structure (SMILES): CCCCC/C=C\C/C=C\CCCCCCC(O)C(=O)O (stereo not drawn) [ABTL0812, COOH—CHOH—(CH2)6—(CH═CH—CH2)2—(CH2)3—CH3]
- Biochemistry Creat ([1]; mouse, in vivo): 9.18 µmol/L
- Biochemistry Triglyc ([1]; mouse, in vivo): 0.94 mmol/L
- Biochemistry Urea ([1]; mouse, in vivo): 3.66 mmol/L
- Body Weight Gain D 8-11 ([1]; mouse, in vivo): 0.138 g
- Hematology PLT ([1]; mouse, in vivo): 1293 ×10^3/μL
- Hematology RBC ([1]; mouse, in vivo): 9.57 ×10^6/μL
- Hematology WBC ([1]; mouse, in vivo): 5.94 ×10^3/μL
- mortality and tolerability ([1]; two-week administration): did not cause mortality and was well tolerated
- cytotoxicity alone at the concentration chosen for the combination ([2]; MiaPaca2, 25 μM ABTL0812): < 10%
- IC50 ([2]; MiaPaca2, 72h, 0.5% FBS, MTT, single agent): 49 µM
- IC50 [3]: 42 µM
- tumor volume [4]: better response in tumor volume evolution than Gem+Nab-Pac group during the first 20 days of treatment; also recorded: better response in tumor volume evolution than Gem group during the whole study
- tumor growth after P/C removal ([5]; after day 47, P/C stopped, ABTL0812 maintained chronically, extra 17 days): tumor growth inhibition very similar to P/C
- tumor growth (volume) ([5]; first 47 days, ABTL0812 120 mg/kg orally, P 50 mg/kg / C 15 mg/kg i.p.): same efficacy as P/C
- total body weight, toxicity ([5]; mouse, in vivo): without any signs of relevant toxicity; also recorded: Body weight reduction was observed partially only in ABTL0812 group at day 15
- IC50 (H1957 cells): 43 µM
- tumor volume [6]: did not show tumor volume reduction compared to vehicle until the last day of treatment
- IC50 [7]: 49 µM
- survival (Kaplan-Meier) [8]: 0%
- IC50 (H157 cells): 23 µM
- IC50 (HTB-812 cells): 29 µM

Source: US11260042B2, “Pharmaceutical combination for the treatment of cancer” (ABILITY PHARMACEUTICALS S.L., priority 2017, dated 2022)
